According to ChEMBL document CHEMBL2074155, “Transport of antimony salts by Arabidopsis thaliana protoplasts over-expressing the human multidrug resistance-associated protein 1 (MRP1/ABCC1)” (FEBS Lett, 2006):

Columns and labels:
[1] = target: T1, Multidrug resistance-associated protein 1 (Homo sapiens, UniProt P33527); test: TP_TRANSPORTER: inhibition of Sb(III) accumulation in the presence of glibenclamid at a concentration of 10uM in MRP1-expressing MCP cells; assay type: functional, subcellular, Protoplasts; details: arabidopsis thaliana
[2] = target: T1, Multidrug resistance-associated protein 1; test: TP_TRANSPORTER: cell accumulation in MRP1-expressing MCP cells; assay type: functional, Mesophyll cell protoplasts; details: arabidopsis thaliana

T1 sequence (P33527 whole entry): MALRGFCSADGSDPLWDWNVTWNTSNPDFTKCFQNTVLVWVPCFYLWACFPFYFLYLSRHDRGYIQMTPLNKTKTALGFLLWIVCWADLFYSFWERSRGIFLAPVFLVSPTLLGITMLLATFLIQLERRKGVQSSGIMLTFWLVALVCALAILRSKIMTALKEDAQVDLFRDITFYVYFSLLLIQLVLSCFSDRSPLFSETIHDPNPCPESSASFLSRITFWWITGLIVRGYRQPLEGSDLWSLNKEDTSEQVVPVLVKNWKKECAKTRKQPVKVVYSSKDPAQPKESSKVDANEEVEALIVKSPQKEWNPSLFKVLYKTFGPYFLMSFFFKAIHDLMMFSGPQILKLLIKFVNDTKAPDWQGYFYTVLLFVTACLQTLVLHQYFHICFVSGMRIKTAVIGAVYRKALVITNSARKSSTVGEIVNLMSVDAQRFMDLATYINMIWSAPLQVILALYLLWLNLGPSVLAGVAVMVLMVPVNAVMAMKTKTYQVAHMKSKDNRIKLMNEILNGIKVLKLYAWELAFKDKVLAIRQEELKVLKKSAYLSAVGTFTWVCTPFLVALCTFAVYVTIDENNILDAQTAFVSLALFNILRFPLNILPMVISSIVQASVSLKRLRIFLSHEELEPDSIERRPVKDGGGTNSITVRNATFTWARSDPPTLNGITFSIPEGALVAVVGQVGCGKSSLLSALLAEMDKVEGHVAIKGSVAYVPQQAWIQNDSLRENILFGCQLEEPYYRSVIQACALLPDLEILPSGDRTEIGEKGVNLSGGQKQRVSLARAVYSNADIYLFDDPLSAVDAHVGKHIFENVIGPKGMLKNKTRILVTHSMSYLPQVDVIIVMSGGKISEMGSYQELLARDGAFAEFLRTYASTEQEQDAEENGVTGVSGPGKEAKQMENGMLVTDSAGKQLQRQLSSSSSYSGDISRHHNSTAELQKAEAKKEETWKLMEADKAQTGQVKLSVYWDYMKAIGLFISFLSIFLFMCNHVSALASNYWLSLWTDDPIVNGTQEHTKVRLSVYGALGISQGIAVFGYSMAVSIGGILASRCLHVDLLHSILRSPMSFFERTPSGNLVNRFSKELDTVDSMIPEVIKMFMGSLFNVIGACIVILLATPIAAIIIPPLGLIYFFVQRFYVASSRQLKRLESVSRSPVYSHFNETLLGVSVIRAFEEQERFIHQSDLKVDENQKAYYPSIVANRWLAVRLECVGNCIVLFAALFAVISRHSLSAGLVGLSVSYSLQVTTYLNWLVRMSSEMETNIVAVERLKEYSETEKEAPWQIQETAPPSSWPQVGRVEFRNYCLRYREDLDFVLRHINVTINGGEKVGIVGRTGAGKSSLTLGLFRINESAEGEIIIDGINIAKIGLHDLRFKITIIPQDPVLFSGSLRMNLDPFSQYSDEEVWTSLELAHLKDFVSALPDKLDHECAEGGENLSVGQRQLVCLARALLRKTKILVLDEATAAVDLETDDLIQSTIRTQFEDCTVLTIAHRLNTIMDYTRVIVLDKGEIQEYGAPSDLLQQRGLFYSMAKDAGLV

Row | Compound | Activity [1] | Activity [2]
1 | COc1ccc(Cl)cc1C(=O)NCCc1ccc(S(=O)(=O)NC(=O)NC2CCCCC2)cc1 [GLYBURIDE] | inhibitor [+] | 
2 | ANTIMONY (III) ION |  | substrate [+]
